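Interpolation was linear, between the two tested concentrations surrounding the appropriate level; five concentrations were tested over 48 hours in 96-well plates. GI50 marks 50% less growth.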 The source made the active and inactive calls. Cut-off read from the data, not from the text of the source: active = GI50 up to about 1.1 µM and inactive = higher.
Experiments:
Test in all cases: DTP human tumour cell line panel, 48 h
Hs-578T = test system: Hs-578T
OVCAR-4 = test system: OVCAR-4
PC-3 = test system: PC-3
KM12 = test system: KM12
M14 = test system: M14
786-0 = test system: 786-0
CCRF-CEM = test system: CCRF-CEM
ACHN = test system: ACHN
SK-MEL-2 = test system: SK-MEL-2
IGROV-1 = test system: IGROV-1
SK-OV-3 = test system: SK-OV-3
UACC-257 = test system: UACC-257
MOLT-4 = test system: MOLT-4
NCI-H23 = test system: NCI-H23
MDA-MB-435 = test system: MDA-MB-435
HCC 2998 = test system: HCC 2998
HCT-15 = test system: HCT-15
RPMI-8226 = test system: RPMI-8226
HT-29 = test system: HT-29
MDA-MB-231 = test system: MDA-MB-231
UACC-62 = test system: UACC-62
NCI-H522 = test system: NCI-H522
SF-295 = test system: SF-295
NCI-H460 = test system: NCI-H460
U-251 = test system: U-251
MCF7 = test system: MCF7
OVCAR-8 = test system: OVCAR-8
SNB-19 = test system: SNB-19
T47D = test system: T47D
A549 = test system: A549
UO-31 = test system: UO-31
SK-MEL-5 = test system: SK-MEL-5
NCI/ADR-RES = test system: NCI/ADR-RES
OVCAR-3 = test system: OVCAR-3
CAKI-1 = test system: CAKI-1
HOP-92 = test system: HOP-92
COLO 205 = test system: COLO 205
SNB-75 = test system: SNB-75
SF-539 = test system: SF-539
A498 = test system: A498
HCT-116 = test system: HCT-116
SW-620 = test system: SW-620
LOX IMVI = test system: LOX IMVI
NCI-H226 = test system: NCI-H226
RXF 393 = test system: RXF 393
EKVX = test system: EKVX
BT-549 = test system: BT-549
OVCAR-5 = test system: OVCAR-5
DU-145 = test system: DU-145
Malme-3M = test system: Malme-3M
K562 = test system: K562
MDA-N = test system: MDA-N
SR = test system: SR
TK-10 = test system: TK-10
SK-MEL-28 = test system: SK-MEL-28
HL-60 = test system: HL-60
SN12C = test system: SN12C
HOP-62 = test system: HOP-62
SF-268 = test system: SF-268

## CCOC(C[Se]CC(OCC)OCC)OCC
Hs-578T
  GI50: 14.9 µM (inactive)
OVCAR-4
  GI50: 45.3 µM (inactive)
PC-3
  GI50: 37.9 µM (inactive)
KM12
  GI50: 53.2 µM (inactive)
M14
  GI50: 52.8 µM (inactive)
786-0
  GI50: > 100 µM (inactive)
CCRF-CEM
  GI50: 33.4 µM (inactive)
ACHN
  GI50: > 100 µM (inactive)
SK-MEL-2
  GI50: 48.5 µM (inactive)
IGROV-1
  GI50: 24.1 µM (inactive)
SK-OV-3
  GI50: 74.6 µM (inactive)
UACC-257
  GI50: 85.1 µM (inactive)
MOLT-4
  GI50: 37.8 µM (inactive)
NCI-H23
  GI50: 34.2 µM (inactive)
MDA-MB-435
  GI50: 36.4 µM (inactive)
HCC 2998
  GI50: > 100 µM (inactive)
HCT-15
  GI50: 57.9 µM
RPMI-8226
  GI50: > 100 µM (inactive)
HT-29
  GI50: 64.9 µM (inactive)
MDA-MB-231
  GI50: 52.5 µM (inactive)
UACC-62
  GI50: 28.4 µM (inactive)
NCI-H522
  GI50: > 100 µM (inactive)
SF-295
  GI50: 26.1 µM (inactive)
NCI-H460
  GI50: 65.9 µM (inactive)
U-251
  GI50: 14.6 µM (inactive)
MCF7
  GI50: 48.3 µM (inactive)
OVCAR-8
  GI50: 27.2 µM (inactive)
SNB-19
  GI50: 48.8 µM (inactive)
T47D
  GI50: > 100 µM (inactive)
A549
  GI50: 75.5 µM (inactive)
UO-31
  GI50: 38.6 µM (inactive)
SK-MEL-5
  GI50: 15.7 µM (inactive)
NCI/ADR-RES
  GI50: 50.9 µM (inactive)
OVCAR-3
  GI50: > 100 µM (inactive)
CAKI-1
  GI50: 59.4 µM (inactive)
HOP-92
  GI50: 39.6 µM (inactive)
COLO 205
  GI50: > 100 µM (inactive)
SNB-75
  GI50: 13.2 µM (inactive)
SF-539
  GI50: 28.7 µM (inactive)
A498
  GI50: > 100 µM (inactive)
HCT-116
  GI50: 32.7 µM (inactive)
SW-620
  GI50: 85.3 µM (inactive)
LOX IMVI
  GI50: 22.9 µM (inactive)
NCI-H226
  GI50: 21.5 µM (inactive)
RXF 393
  GI50: 28.4 µM (inactive)
EKVX
  GI50: > 100 µM (inactive)
BT-549
  GI50: 31.8 µM (inactive)
OVCAR-5
  GI50: 96.6 µM (inactive)
DU-145
  GI50: 37.5 µM (inactive)
Malme-3M
  GI50: 61.5 µM (inactive)
K562
  GI50: > 100 µM (inactive)
MDA-N
  GI50: 89.7 µM (inactive)
SR
  GI50: > 100 µM (inactive)
TK-10
  GI50: 53.6 µM (inactive)
SK-MEL-28
  GI50: 49.4 µM (inactive)
HL-60
  GI50: 16.8 µM (inactive)

## CCCCCCCCCC[C@H](O)[C@H]1CC[C@@H]([C@@H](O)CC[C@H](O)[C@@H]2CCC(CCCCCCC[C@@H](O)CC3=C[C@H](C)OC3=O)O2)O1 (some centres undefined)
Hs-578T
  GI50: 1.81 µM (inactive)
OVCAR-4
  GI50: 4.4 µM (inactive)
PC-3
  GI50: 1.57 µM (inactive)
KM12
  GI50: 1.53 µM (inactive)
M14
  GI50: 1.5 µM (inactive)
786-0
  GI50: 1.79 µM (inactive)
CCRF-CEM
  GI50: 1.11 µM (active)
ACHN
  GI50: 1.21 µM (inactive)
SK-MEL-2
  GI50: 1.39 µM (inactive)
IGROV-1
  GI50: 1.78 µM (inactive)
UACC-257
  GI50: 0.115 µM (active)
SN12C
  GI50: 2.94 µM (inactive)
MOLT-4
  GI50: 2.92 µM (inactive)
NCI-H23
  GI50: 1.31 µM (inactive)
MDA-MB-435
  GI50: 1.33 µM (inactive)
HCC 2998
  GI50: 4.33 µM (inactive)
HCT-15
  GI50: 3.64 µM
RPMI-8226
  GI50: 2.52 µM (inactive)
HT-29
  GI50: 1.73 µM (inactive)
MDA-MB-231
  GI50: 2.62 µM (inactive)
UACC-62
  GI50: 1.02 µM (active)
NCI-H522
  GI50: 3.7 µM (inactive)
SF-295
  GI50: 1.73 µM (inactive)
NCI-H460
  GI50: 1.86 µM (inactive)
U-251
  GI50: 1.97 µM (inactive)
MCF7
  GI50: 1.49 µM (inactive)
OVCAR-8
  GI50: 1.95 µM (inactive)
SNB-19
  GI50: 1.61 µM (inactive)
T47D
  GI50: 3.08 µM (inactive)
A549
  GI50: 1.77 µM (inactive)
UO-31
  GI50: 0.00416 µM (active)
SK-MEL-5
  GI50: 1.5 µM (inactive)
NCI/ADR-RES
  GI50: 1.34 µM (inactive)
OVCAR-3
  GI50: 1.35 µM (inactive)
CAKI-1
  GI50: 3.22 µM (inactive)
HOP-92
  GI50: 1.02 µM (active)
COLO 205
  GI50: 2.37 µM (inactive)
SNB-75
  GI50: 2.47 µM (inactive)
SF-539
  GI50: 1.79 µM (inactive)
A498
  GI50: 3.16 µM (inactive)
HCT-116
  GI50: 1.16 µM (inactive)
SW-620
  GI50: 1.69 µM (inactive)
LOX IMVI
  GI50: 0.212 µM (active)
HOP-62
  GI50: 1.65 µM (inactive)
NCI-H226
  GI50: 1.57 µM (inactive)
RXF 393
  GI50: 2.66 µM (inactive)
EKVX
  GI50: 1.89 µM (inactive)
BT-549
  GI50: 5.08 µM (inactive)
OVCAR-5
  GI50: 3.49 µM (inactive)
DU-145
  GI50: 3.6 µM (inactive)
Malme-3M
  GI50: 3.4 µM (inactive)
K562
  GI50: 1.37 µM (inactive)
MDA-N
  GI50: 2.43 µM (inactive)
SR
  GI50: 2.05 µM (inactive)
TK-10
  GI50: 1.59 µM (inactive)
SK-MEL-28
  GI50: 1.93 µM (inactive)
HL-60
  GI50: 1.44 µM (inactive)
SF-268
  GI50: 1.85 µM (inactive)

Source: ChEMBL document CHEMBL1201862, “PubChem BioAssay data set” (2004)
